What is called EC50 is the concentration that produces a half-maximal response. As a reminder, the GI50 is the concentration giving 50% growth inhibition. A lower GI50 goes with more potent growth inhibition.

Holding throughout (assay type): cell-based
In test [1] the test system is Human breast cancer cell lines T-47D. As to the kind of experiment: Caspase cascade activation (Ac-DEVD-R110 fluorogenic substrate) in T-47D cells. The settings on record: T47D cells, 48 h incubation, read-out: caspase potency EC50 T47D. The method, then:
(§1) Human breast cancer cell lines T-47D, human hepatocellular carcinoma cell line SNU398, human colon carcinoma cell line HCT116, human cancer cell line H11299, human Burkitt's lymphoma cell line Namalwa, human lymphoma cell line Raji, and human B cell lymphoblastoid cell line Ramos were grown according to media component mixtures designated by American Type Culture Collection+10% FCS (Invitrogen Corporation), in a 5% CO2-95% humidity incubator at 37° C. T-47D and H1299 cells were maintained at a cell density between 50 and 80% confluency at a cell density of 0.1 to 0.6×10^6 cells/mL. Cells were harvested at 600×g and resuspended at 0.65×10^6 cells/mL into appropriate media+10% FCS. An aliquot of 22.5 μL of cells was added to a well of a 384-well microtiter plate containing 2.5 μL of a 10% DMSO in RPMI-1640 media solution containing 0.16 to 100 μM of 6-(3,4-dimethoxyphenyl)-3-(2-methoxyphenyl)-[1,2,4]triazolo[3,4-b][1,3,4]thiadiazole or other test compound (0.016 to 10 μM final). An aliquot of 22.5 μL of cells was added to a well of a 384-well microtiter plate containing 2.5 μL of a 10% DMSO in RPMI-1640 media solution without test compound as the control sample. The samples were mixed by agitation and then incubated at 37° C. for 48 h in a 5% CO2-95% humidity incubator. After incubation, the samples were removed from the incubator and 25 μL of a solution containing 14 μM of N-(Ac-DEVD)-N′-ethoxycarbonyl-R110 (SEQ ID No.:1) fluorogenic substrate (Cytovia, Inc.; WO99/18856), 20% sucrose (Sigma), 20 mM DTT (Sigma), 200 mM NaCl (Sigma), 40 mM Na PIPES buffer pH 7.2 (Sigma), and 500 μg/mL lysolecithin (Calbiochem) was added. The samples were mixed by agitation and incubated at room temperature. Using a fluorescent plate reader (Model SPECTRAfluor Plus, Tecan), an initial reading (T=0) was made approximately 1-2 min after addition of the substrate solution, employing excitation at 485 nm and emission at 530 nm, to determine the background fluorescence of the control sample. After the 3 h incubation, the samples were read for fluorescence as above (T=3 h).
(§2) The Relative Fluorescence Unit values (RFU) were used to calculate the sample readings as follows: RFU(T=3h)−Control RFU(T=0)=Net RFU(T=3h)
(§3) The activity of caspase cascade activation was determined by the ratio of the net RFU value for 6-(3,4-dimethoxyphenyl)-3-(2-methoxyphenyl)-[1,2,4]triazolo[3,4-b][1,3,4]thiadiazole (Example I) or other test compound to that of control samples. The EC50 (nM) was determined by a sigmoidal dose-response calculation (Prism 3.0, GraphPad Software Inc.).

In test [2] the test system is human colon carcinoma cell line HCT116. The test can be described thus: Caspase cascade activation in HCT116 cells. As to conditions: HCT-116, 48 h incubation, read-out: caspase potency EC50 HCT116. The method, then:
as §1, §2, §3

Test [3] has as its system human lymphoma cell line Raji. As to the kind of experiment: Caspase cascade activation in Raji cells. The settings on record: RAJ1 cells, 48 h incubation, read-out: caspase potency EC50 RAJ1. The protocol: as §1, §2, §3
Test [4] deals with human B cell lymphoblastoid cell line Ramos. The test can be described thus: Caspase cascade activation in Ramos cells. The settings on record: 48 h incubation, read-out: caspase potency EC50 RAMOS. The method, then: as §1, §2, §3
The subject of test [5] is human hepatocellular carcinoma cell line SNU398. The test can be described thus: Caspase cascade activation in SNU398 cells. As to conditions: SNU-398, 48 h incubation, read-out: caspase potency EC50 SNU398. The protocol: as §1, §2, §3
The test system of test [6] is human Burkitt's lymphoma cell line Namalwa. The test can be described thus: Caspase cascade activation in Namalwa cells. As to conditions: Burkitts lymphoma cell, 48 h incubation, read-out: caspase potency EC50 Namalwa. The protocol:
as §1, §2, §3

The subject of test [7] is human colon carcinoma cell line HCT116. As to the kind of experiment: Inhibition of cell proliferation (GI50) in HCT116 cells. The settings on record: HCT 116 cells, 48 h incubation. The protocol:
(§4) Human breast cancer cell lines T-47D, MX1 and MDAMB435, human colon carcinoma cell line HCT116, human leukemia cell line K562, human lymphoma cell line Raji, human B cell lymphoblastoid cell line Ramos, and human Burkitt's lymphoma cell line Namalwa were grown and harvested as in Example 14. An aliquot of […] of cells (4.4×10^4 cells/mL) was added to a well of a 96-well microtiter plate containing 5 μL of a 10% DMSO in RPMI-1640 media solution containing 10 nM to 100 μM of 6-(3,4-dimethoxyphenyl)-3-(2-methoxyphenyl)-[1,2,4]triazolo[3,4-b][1,3,4]thiadiazole (1 nM to 10 μM final). An aliquot of 45 μL of cells was added to a well of a 96-well microtiter plate containing 5 μL of a 10% DMSO in RPMI-1640 media solution without compound as the control sample for maximal cell proliferation (LMax). The samples were mixed by agitation and then incubated at 37° C. for 48 h in a 5% CO2-95% humidity incubator. After incubation, the samples were removed from the incubator and 25 μL of CellTiter-Glo™ reagent (Promega) was added. The samples were mixed by agitation and incubated at room temperature for 10-15 min. Plates were then read using a luminescent plate reader (Model SPECTRAfluor Plus, Tecan) to give Ltest values.
(§5) The samples were mixed by agitation and then incubated at 37° C. for 0.5 h in a 5% CO2-95% humidity incubator. After incubation, the samples were removed from the incubator and 25 μL of CellTiter-Glo™ reagent (Promega) was added. The samples were mixed by agitation and incubated at […] 10-15 min at room temperature in a 5% CO2-95% humidity incubator. Fluorescence was read as above, (LStart) defining luminescence for initial cell number used as baseline in GI50 determinations.
(§6) GI50 (dose for 50% inhibition of cell proliferation) is the concentration where [(LTest−LStart)/(LMax−LStart)]=0.5.

For test [8], the system named is human Burkitt's lymphoma cell line Namalwa. As to the kind of experiment: Inhibition of cell proliferation (GI50) in Namalwa cells. The settings on record: Burkitts lymphoma cell, 48 h incubation. The method, then: as §4, §5, §6
The subject of test [9] is human lymphoma cell line Raji. The test can be described thus: Inhibition of cell proliferation (GI50) in Raji cells. As to conditions: 48 h incubation. The protocol:
as §4, §5, §6

The subject of test [10] is human B cell lymphoblastoid cell line Ramos. As to the kind of experiment: Inhibition of cell proliferation (GI50) in Ramos cells. As to conditions: 48 h incubation. The protocol: as §4, §5, §6
Test [11] relates to human leukemia cell line K562. The test can be described thus: Inhibition of cell proliferation (GI50) in K562 cells. The settings on record: 48 h incubation. The protocol: as §4, §5, §6
Test [12] concerns human cancer cell line H1299. As to the kind of experiment: Caspase cascade activation in H1299 cells. The settings on record: NCI-H1299, 48 h incubation, read-out: caspase potency EC50 H1299. The protocol: as §1, §2, §3

Molecules are shown by their SMILES. Some results are limits rather than exact numbers.

As to `COc1cc(-c2nnc3sc(-c4ccc(C)c(C)c4)nn23)cc(OC)c1OC` [Entry T, 6-(3,4-Dimethylphenyl)-3-(3,4,5-trimethoxyphenyl)-[1,2,4]triazolo[3,4-b][1,3,4]thiadiazole], the concentration giving a half-maximal response (EC50) turned out to be 517 nM in [1]; 336 nM in [2]; 490 nM in test [3]; 314 nM in [4]; 297 nM in [5]; 611 nM in test [6]. Further, the GI50 is 906 nM in test [7]; 500 nM in test [8]; 559 nM in [9]; 137 nM in test [10]; 131 nM in test [11].

As for `Cc1cccc(-c2nn3c(-c4ccc(Cl)cc4Cl)nnc3s2)c1` [K, 3-(2,4-Dichlorophenyl)-6-m-tolyl-[1,2,4]triazolo[3,4-b][1,3,4]thiadiazole], the EC50 in [1] worked out at 607 nM; in test [2], 661 nM; in test [3], 505 nM; in [4], 387 nM; in test [5] it was 482 nM; in test [6], 469 nM. Further, the GI50 was 400 nM in [7]; 559 nM in test [8]; 500 nM in test [9]; 123 nM in test [10]; 379 nM in [11].

Regarding `Clc1ccccc1-c1nnc2sc(-c3ccc4c(c3)OCO4)nn12` [L, 3-(2-Chlorophenyl)-6-(3,4-methylenedioxyphenyl)-[1,2,4]triazolo[3,4-b][1,3,4]thiadiazole], the EC50 in test [1] is 2620 nM; in test [2] it was greater than 10000 nM; in [3], greater than 10000 nM; in test [4], greater than 10000 nM; in test [5], greater than 10000 nM; in test [6], greater than 10000 nM. For the same compound, the EC50 in [12] was greater than 10000 nM.

Turning to `COc1ccc(-c2nn3c(-c4ccc(Cl)cc4)nnc3s2)cc1` [M, 3-(4-Chlorophenyl)-6-(4-methoxyphenyl)-[1,2,4]triazolo[3,4-b][1,3,4]thiadiazole], the EC50 is 4480 nM in [1]; greater than 10000 nM in test [2]; greater than 10000 nM in [3]; greater than 10000 nM in [4]; greater than 10000 nM in [5]; greater than 10000 nM in test [6]. The concentration for a half-maximal effect (EC50) in test [12] was 5050 nM.

In the case of `COc1ccc(-c2nn3c(-c4ccc(Cl)cc4Cl)nnc3s2)cc1OC` [N, 3-(2,4-Dichlorophenyl)-6-(3,4-dimethoxyphenyl)-[1,2,4]triazolo[3,4-b][1,3,4]thiadiazole], the EC50 in test [1] was 5020 nM; in [2], greater than 10000 nM; in test [3] it was greater than 10000 nM; in [4] it was 5780 nM; in test [5], greater than 10000 nM; in test [6], 5510 nM. Further, in [12], the EC50 was greater than 10000 nM.

Turning to `CCOc1ccc(-c2nn3c(-c4ccccc4Cl)nnc3s2)cc1` [O, 3-(2-Chlorophenyl)-6-(4-ethoxyphenyl)-[1,2,4]triazolo[3,4-b][1,3,4]thiadiazole], the EC50 was 2430 nM in [1]; greater than 10000 nM in test [2]; greater than 10000 nM in test [3]; greater than 10000 nM in test [4]; greater than 10000 nM in test [5]; greater than 10000 nM in test [6]. Also, the EC50 in test [12] is greater than 10000 nM.

Consider `Clc1ccccc1-c1nnc2sc(-c3ccc4c(c3)OCCO4)nn12` [Q, 3-(2-Chlorophenyl)-6-(3,4-ethylenedioxyphenyl)-[1,2,4]triazolo[3,4-b][1,3,4]thiadiazole], for which the half-maximal effective concentration (EC50) was 2450 nM in test [1]; 2670 nM in test [2]; 688 nM in [3]; 532 nM in test [4]; 2120 nM in [5]; 552 nM in test [6]. The GI50 is 6040 nM in [7]; 2040 nM in [8]; 6730 nM in test [9]; 1300 nM in test [10]; 1880 nM in [11].

With `COc1cc(-c2nnc3sc(-c4ccco4)nn23)cc(OC)c1OC` [R, 6-(Furan-2-yl)-3-(3,4,5-trimethoxyphenyl)-[1,2,4]triazolo[3,4-b][1,3,4]thiadiazole], the EC50 was 203 nM in test [1]; 216 nM in [2]; 253 nM in [3]; 241 nM in [4]; 183 nM in [5]; 244 nM in test [6]. Further, the concentration for 50% growth inhibition (GI50) in test [7] was 1500 nM; in test [8] it was 450 nM; in [9] it was 651 nM; in test [10], 442 nM; in test [11] it was 150 nM.

`COc1cccc(-c2nn3c(-c4cc(OC)c(OC)c(OC)c4)nnc3s2)c1` [U, 6-(3-Methoxyphenyl)-3-(3,4,5-trimethoxyphenyl)-[1,2,4]triazolo[3,4-b][1,3,4]thiadiazole]: the EC50 in test [1] is 2740 nM; in test [2], greater than 10000 nM; in test [3], greater than 10000 nM; in test [4] it was greater than 10000 nM; in test [5], greater than 10000 nM; in test [6] it was greater than 10000 nM. Besides, the GI50 in test [7] was greater than 10000 nM; in [8], greater than 10000 nM; in test [9], 4640 nM; in test [10], 2690 nM; in [11], 2770 nM.

On to `COc1ccc(-c2nn3c(-c4cc(OC)c(OC)c(OC)c4)nnc3s2)cc1OC` [V, 6-(3,4-Dimethoxyphenyl)-3-(3,4,5-trimethoxyphenyl)-[1,2,4]triazolo[3,4-b][1,3,4]thiadiazole], for which the EC50 in test [1] is greater than 10000 nM; in test [2] it was greater than 10000 nM; in test [3], greater than 10000 nM; in [4], 2320 nM; in test [5], greater than 10000 nM; in test [6] it was greater than 10000 nM. The GI50 is 5000 nM in test [7]; greater than 10000 nM in [8]; 5000 nM in test [9]; 3650 nM in test [10]; 1600 nM in test [11].
